From ChEMBL document CHEMBL3885881, “DrugMatrix”

Organism: Rattus norvegicus
Assay: DrugMatrix - Regimen: Daily Repeat
Type: toxicity, organism-based, Sprague-Dawley
Design: regimen Daily Repeat, gender Male, age 6-8 weeks
Settings: in vivo, sc, route subcutaneous, […]; for ABSOLUTE BASOPHIL / ABSOLUTE EOSINOPHIL / ABSOLUTE LYMPHOCYTE / ABSOLUTE MONOCYTE / ABSOLUTE SEGMENTED NEUTROPHIL / BASOPHIL / EOSINOPHIL / ERYTHROCYTE COUNT / HEMATOCRIT / HEMOGLOBIN / LEUKOCYTE COUNT / LYMPHOCYTE / MEAN CORPUSCULAR HEMOGLOBIN / MEAN CORPUSCULAR HEMOGLOBIN CONCENTRATION / MEAN CORPUSCULAR VOLUME / MONOCYTE / NEUTROPHIL / NUCLEATED RED BLOOD CELLS / PLATELET COUNT: tissue Blood; for ALANINE AMINOTRANSFERASE / ALBUMIN / ALKALINE PHOSPHATASE / ASPARTATE AMINOTRANSFERASE / BLOOD UREA NITROGEN / CARBON DIOXIDE / CHLORIDE / CHOLESTEROL / CREATINE PHOSPHOKINASE / CREATININE / GLUCOSE / LACTATE DEHYDROGENASE / LIPASE / PHOSPHORUS / POTASSIUM / SODIUM / TOTAL BILIRUBIN / TOTAL PROTEIN / URIC ACID: tissue Plasma
[1] = 0.4 mg/kg, 72 h, dose level Low, time 3 day
[2] = 0.4 mg/kg, 120 h, dose level Low, time 5 day
[3] = 4 mg/kg, 72 h, dose level High, time 3 day
[4] = 4 mg/kg, 120 h, dose level High, time 5 day

## COc1cc([C@@H]2c3cc4c(cc3[C@H](O)[C@H]3COC(=O)[C@H]23)OCO4)cc(OC)c1OC [PODOFILOX]
[1]
  ABSOLUTE BASOPHIL: 0 CELLS/uL
  ABSOLUTE EOSINOPHIL: 46.67 CELLS/uL
  ABSOLUTE LYMPHOCYTE: 10326.67 CELLS/uL
  ABSOLUTE MONOCYTE: 246 CELLS/uL
  ABSOLUTE SEGMENTED NEUTROPHIL: 1114 CELLS/uL
  BASOPHIL: 0%
  EOSINOPHIL: 0.33%
  ERYTHROCYTE COUNT: 5.36 x10E6/uL
  HEMATOCRIT: 33.43%
  HEMOGLOBIN: 12.37 G/DL
  LEUKOCYTE COUNT: 11.73 x10E3/uL
  LYMPHOCYTE: 88.33%
  MEAN CORPUSCULAR HEMOGLOBIN: 23.07 pg
  MEAN CORPUSCULAR HEMOGLOBIN CONCENTRATION: 37 G/DL
  MEAN CORPUSCULAR VOLUME: 62.43 fL
  MONOCYTE: 2%
  NEUTROPHIL: 9.33%
  NUCLEATED RED BLOOD CELLS: 0 /100WBC
  PLATELET COUNT: 1280.67 x10E3/uL
  ALANINE AMINOTRANSFERASE: 44.33 u/L
  ALBUMIN: 3.33 G/DL
  ALKALINE PHOSPHATASE: 320.67 u/L
  ASPARTATE AMINOTRANSFERASE: 77.67 u/L
  BLOOD UREA NITROGEN: 16.33 mg/dL
  CARBON DIOXIDE: 27.33 mmol/L
  CHLORIDE: 104.67 MEQ/L
  CHOLESTEROL: 67.33 mg/dL
  CREATINE PHOSPHOKINASE: 222.67 u/L
  CREATININE: 0.2 mg/dL
  GLUCOSE: 162 mg/dL
  LACTATE DEHYDROGENASE: 146.67 u/L
  LIPASE: 8 u/L
  PHOSPHORUS: 12.87 mg/dL
  POTASSIUM: 6.48 MEQ/L
  SODIUM: 146.23 MEQ/L
  TOTAL BILIRUBIN: 0.2 mg/dL
  TOTAL PROTEIN: 5.23 G/DL
  URIC ACID: 1.53 mg/dL
[2]
  ABSOLUTE BASOPHIL: 0 CELLS/uL
  ABSOLUTE EOSINOPHIL: 0 CELLS/uL
  ABSOLUTE LYMPHOCYTE: 4413.33 CELLS/uL
  ABSOLUTE MONOCYTE: 17.67 CELLS/uL
  ABSOLUTE SEGMENTED NEUTROPHIL: 1569 CELLS/uL
  BASOPHIL: 0%
  EOSINOPHIL: 0%
  ERYTHROCYTE COUNT: 5.41 x10E6/uL
  HEMATOCRIT: 33.67%
  HEMOGLOBIN: 12.57 G/DL
  LEUKOCYTE COUNT: 6 x10E3/uL
  LYMPHOCYTE: 73.67%
  MEAN CORPUSCULAR HEMOGLOBIN: 23.23 pg
  MEAN CORPUSCULAR HEMOGLOBIN CONCENTRATION: 37.33 G/DL
  MEAN CORPUSCULAR VOLUME: 62.3 fL
  MONOCYTE: 0.33%
  NEUTROPHIL: 26%
  NUCLEATED RED BLOOD CELLS: 0.67 /100WBC
  PLATELET COUNT: 1853.33 x10E3/uL
  ALANINE AMINOTRANSFERASE: 44.33 u/L
  ALBUMIN: 4.03 G/DL
  ALKALINE PHOSPHATASE: 296.33 u/L
  ASPARTATE AMINOTRANSFERASE: 117 u/L
  BLOOD UREA NITROGEN: 19.33 mg/dL
  CARBON DIOXIDE: 26 mmol/L
  CHLORIDE: 105.67 MEQ/L
  CHOLESTEROL: 82.67 mg/dL
  CREATINE PHOSPHOKINASE: 843.33 u/L
  CREATININE: 0.2 mg/dL
  GLUCOSE: 187.33 mg/dL
  LACTATE DEHYDROGENASE: 167.67 u/L
  LIPASE: 8.67 u/L
  PHOSPHORUS: 11.4 mg/dL
  POTASSIUM: 6.97 MEQ/L
  SODIUM: 148.4 MEQ/L
  TOTAL BILIRUBIN: 0.1 mg/dL
  TOTAL PROTEIN: 6.7 G/DL
  URIC ACID: 2.73 mg/dL
[3]
  ABSOLUTE BASOPHIL: 0 CELLS/uL
  ABSOLUTE EOSINOPHIL: 70.67 CELLS/uL
  ABSOLUTE LYMPHOCYTE: 10536.33 CELLS/uL
  ABSOLUTE MONOCYTE: 257.67 CELLS/uL
  ABSOLUTE SEGMENTED NEUTROPHIL: 768.67 CELLS/uL
  BASOPHIL: 0%
  EOSINOPHIL: 0.67%
  ERYTHROCYTE COUNT: 4.67 x10E6/uL
  HEMATOCRIT: 29.03%
  HEMOGLOBIN: 11 G/DL
  LEUKOCYTE COUNT: 11.63 x10E3/uL
  LYMPHOCYTE: 90.33%
  MEAN CORPUSCULAR HEMOGLOBIN: 23.63 pg
  MEAN CORPUSCULAR HEMOGLOBIN CONCENTRATION: 37.93 G/DL
  MEAN CORPUSCULAR VOLUME: 62.43 fL
  MONOCYTE: 2.33%
  NEUTROPHIL: 6.67%
  NUCLEATED RED BLOOD CELLS: 0.67 /100WBC
  PLATELET COUNT: 1479.33 x10E3/uL
  ALANINE AMINOTRANSFERASE: 36 u/L
  ALBUMIN: 3.27 G/DL
  ALKALINE PHOSPHATASE: 238.33 u/L
  ASPARTATE AMINOTRANSFERASE: 81 u/L
  BLOOD UREA NITROGEN: 15.33 mg/dL
  CARBON DIOXIDE: 22.67 mmol/L
  CHLORIDE: 105.67 MEQ/L
  CHOLESTEROL: 61 mg/dL
  CREATINE PHOSPHOKINASE: 371.33 u/L
  CREATININE: 0.17 mg/dL
  GLUCOSE: 145 mg/dL
  LACTATE DEHYDROGENASE: 371.33 u/L
  LIPASE: 7.67 u/L
  PHOSPHORUS: 9.1 mg/dL
  POTASSIUM: 6.96 MEQ/L
  SODIUM: 144.97 MEQ/L
  TOTAL BILIRUBIN: 0.17 mg/dL
  TOTAL PROTEIN: 5.3 G/DL
  URIC ACID: 1.73 mg/dL
[4]
  ABSOLUTE BASOPHIL: 0 CELLS/uL
  ABSOLUTE EOSINOPHIL: 0 CELLS/uL
  ABSOLUTE LYMPHOCYTE: 6143.67 CELLS/uL
  ABSOLUTE MONOCYTE: 159 CELLS/uL
  ABSOLUTE SEGMENTED NEUTROPHIL: 330.67 CELLS/uL
  BASOPHIL: 0%
  EOSINOPHIL: 0%
  ERYTHROCYTE COUNT: 5.45 x10E6/uL
  HEMATOCRIT: 32.83%
  HEMOGLOBIN: 12.27 G/DL
  LEUKOCYTE COUNT: 6.63 x10E3/uL
  LYMPHOCYTE: 93%
  MEAN CORPUSCULAR HEMOGLOBIN: 22.5 pg
  MEAN CORPUSCULAR HEMOGLOBIN CONCENTRATION: 37.37 G/DL
  MEAN CORPUSCULAR VOLUME: 60.13 fL
  MONOCYTE: 2.33%
  NEUTROPHIL: 4.67%
  NUCLEATED RED BLOOD CELLS: 0 /100WBC
  PLATELET COUNT: 878 x10E3/uL
  ALANINE AMINOTRANSFERASE: 45.67 u/L
  ALBUMIN: 3.57 G/DL
  ALKALINE PHOSPHATASE: 214.33 u/L
  ASPARTATE AMINOTRANSFERASE: 96.33 u/L
  BLOOD UREA NITROGEN: 18 mg/dL
  CARBON DIOXIDE: 26.5 mmol/L
  CHLORIDE: 104.5 MEQ/L
  CHOLESTEROL: 69.5 mg/dL
  CREATINE PHOSPHOKINASE: 269.67 u/L
  CREATININE: 0.18 mg/dL
  GLUCOSE: 163 mg/dL
  LACTATE DEHYDROGENASE: 182.67 u/L
  LIPASE: 8 u/L
  PHOSPHORUS: 11.1 mg/dL
  POTASSIUM: 5.69 MEQ/L
  SODIUM: 146.25 MEQ/L
  TOTAL BILIRUBIN: 0.1 mg/dL
  TOTAL PROTEIN: 5.8 G/DL
  URIC ACID: 1.35 mg/dL
